Assays:
Assay type in all cases: functional, cell-based
MCF7 = assay: Cytotoxicity against human MCF7 cells expressing estrogen receptor after 72 hrs by MTT assay; details: MCF7, 72 h
MDA-MB-231 = assay: Cytotoxicity against estrogen receptor deficient human MDA-MB-231 cells after 72 hrs by MTT assay; details: MDA-MB-231, 72 h
[1] = Cytotoxicity against estrogen receptor deficient human MDA-MB-436 cells after 72 hrs by MTT assay; details: MDA-MB-436, 72 h
MDA-MB-468 = assay: Cytotoxicity against estrogen receptor deficient human MDA-MB-468 cells after 72 hrs by MTT assay; details: MDA-MB-468, 72 h

COc1ccc2c(c1)OC(C)(C)[C@@H](c1ccccc1)[C@@H]2c1ccc(OCCCCCCNCCCc2ccccn2)cc1
IC50 (MCF7): 15.6 µM
IC50 (MDA-MB-231): 18.7 µM
IC50 [1]: 15.7 µM
IC50 (MDA-MB-468): 7.61 µM

Reference: ChEMBL document CHEMBL1155049, “Synthesis and cytotoxic activity of benzopyran-based platinum(II) complexes” (Bioorg Med Chem Lett, 2008)
